Measured values as given in publication PMC8041284, “Tunable Methacrylamides for Covalent Ligand Directed Release Chemistry” (Journal of the American Chemical Society, 2021).

Biological target: BTK (Homo sapiens, UniProt Q06187)
Assay: biochemical
Conditions: read-out: BTK inhibition (%)

Chain of BTK (Q06187 402-655 limits assumed): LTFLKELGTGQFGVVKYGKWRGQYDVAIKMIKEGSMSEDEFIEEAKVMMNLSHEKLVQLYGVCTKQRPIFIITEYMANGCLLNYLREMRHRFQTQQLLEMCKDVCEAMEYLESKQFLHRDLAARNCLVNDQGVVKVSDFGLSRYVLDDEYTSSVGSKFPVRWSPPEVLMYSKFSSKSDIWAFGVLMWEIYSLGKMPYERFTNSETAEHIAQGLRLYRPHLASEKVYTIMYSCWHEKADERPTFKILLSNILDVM

Compound | inhibition at 10 µM
C=C[C@@]12CN(C)[C@H]3C[C@]14C(=Nc1ccccc14)[C@@H]1C[C@@H]2[C@@H]3CO1 [PCM-0216515] | -16.2%

Same assay, conditions: read-out: BTK inhibition (%), 0.75 uM BTK, […] probe 3l, 15 min preincubation

inhibition at 10 µM | Compound
15.6% | CCOC(=O)C1=C(N)Oc2ccc(Br)cc2C1C(C#N)C(=O)OCC (stereo not shown) [PCM-0214778]
-15.9% | CCOC(=O)NC/C=C/c1ccc2ncnc(Nc3ccc(Oc4ccc(C)nc4)c(C)c3)c2c1 [PCM-0095019]
9.3% | CN(C)Cc1ccc(S(=O)(=O)n2ccc(/C=C/C(=O)NO)c2)cc1 [PCM-0214759]
-5.4% | NC(=O)[C@@H]1CCCN1C(=O)[C@H](Cc1cnc[nH]1)NC(=O)[C@@H]1CCC(=O)N1 [PCM-0214836]
15.4% | Nc1ncnc2c1ncn2[C@H]1C[C@H](O)[C@@H](CO)O1 [PCM-0101923]
-31.9% | N[C@@H](Cc1cc(I)c(O)c(I)c1)C(=O)O [PCM-0215163]
7.7% | CC[C@H](C)[C@H](N)C(=O)O [PCM-0215927]
1.6% | CC1(C)CC(=O)c2c(C(F)(F)F)nn(-c3ccc(C(N)=O)c(NC4CCC(OC(=O)CN)CC4)c3)c2C1 (stereo not shown) [PCM-0214703]
9% | CCCN=C1S/C(=C\c2ccc(OC[C@H](O)CO)c(Cl)c2)C(=O)N1c1ccccc1C [PCM-0215632]
1.6% | CC1(C)C2CCC1(C)C(O)C2 (stereo not shown) [PCM-0214868]
23.2% | Cc1ccc(C(C)C)c(O)c1 [PCM-0215949]
-10.2% | CN[C@@H]1[C@H](O[C@H]2[C@H](O[C@H]3[C@H](O)[C@@H](O)[C@H](N=C(N)N)[C@@H](O)[C@@H]3N=C(N)N)O[C@@H](C)[C@]2(O)C=O)O[C@@H](CO)[C@H](O)[C@H]1O [PCM-0215192]
-4.6% | CC(=O)O[C@@H](C[C@@H](C)C1=C2C[C@H](O)[C@H]3[C@@]4(C)CCC(=O)C(C)(C)[C@@H]4CC[C@]3(C)[C@@]2(C)CC1)[C@H]1OC1(C)C [PCM-0216390]
-12.4% | CCCn1c(NC(=O)c2cccc(C(N)=O)c2)nc2ccccc21 [PCM-0215951]
-3.9% | C=C1C[C@@]23CC[C@H]4[C@@](C)(CCC[C@@]4(C)C(=O)O)[C@@H]2CC[C@@H]1C3 [PCM-0216330]
-64.6% | CCCCCCCCOc1ccccc1C(=O)Nc1ccc(C(=O)OCC[N+](C)(CC)CC)cc1 [PCM-0095536]
21.8% | CN(C)C(=N)N=C(N)N [PCM-0085761]
11.1% | COc1cc(O)c2c(c1)C(=O)c1cc(C)cc(O)c1C2=O [PCM-0088700]
0.7% | COc1ccnc2[nH]cc(C(=O)C(=O)N3CCN(C(=O)c4ccccc4)C[C@H]3C)c12 [PCM-0095512]
-11.7% | C[N+](C)(C)CC(O)CC(=O)O (stereo not shown) [PCM-0090641]
3.1% | NC(=O)Cc1c[nH]c2ccccc12 [PCM-0216587]
16.2% | CC(C)=CCOc1ccc(/C=C/C(=O)c2ccc(OCC=C(C)C)cc2OCC(=O)O)cc1 [PCM-0216579]
-0.8% | COC(=O)C1=CO[C@@H](O[C@@H]2O[C@H](CO)[C@@H](O)[C@H](O)[C@H]2O)[C@@H]2[C@@]3(C)O[C@H]3[C@@H](O)[C@]12O [PCM-0216309]
3.9% | CCC(=O)NC[C@@H]1C[C@H]1c1cccc2c1CCO2 [PCM-0216634]
-2.3% | NCCc1ccc(O)c(O)c1 [PCM-0065130]
-13.6% | O=C(O)CC[C@@H](O)C(=O)O [PCM-0215516]

The remaining lines, values behind:

Compound | inhibition at 10 µM
N[C@H]1C[C@@H]1c1ccccc1 [PCM-0095814] | -6.2%
N#CC(C#N)=NNc1ccc(OC(F)(F)F)cc1 [PCM-0215645] | 52.5%
CN(C)CCN1C(=O)c2cccc3cc(N)cc(c23)C1=O [PCM-0095001] | 0.8%
CCCCCCCCCC=O [PCM-0216148] | -10%
CCCCCCCCN=c1ccn(CCCCCCCCCCn2ccc(=NCCCCCCCC)cc2)cc1 [PCM-0215117] | -64.1%
c1ccc2c(c1)CCCC2C1=NCCN1 (stereo not shown) [PCM-0064782] | -11%
OC(CNc1ccccc1)Cn1c2ccc(Br)cc2c2cc(Br)ccc21 (stereo not shown) [PCM-0215533] | 44.8%
Fc1ccc(C(c2ccc(F)cc2)N2CCN(C/C=C/c3ccccc3)CC2)cc1 [PCM-0065210] | 87.2%
NS(=O)(=O)c1ccc(NC(=O)Nc2ccc(F)cc2)cc1 [PCM-0095531] | -15.6%
Cc1cc([C@@H](C)Nc2ccccc2C(=O)O)c2nc(N3CCOCC3)cc(=O)n2c1 [PCM-0214725] | -6.9%
CCC[C@H](N[C@H]1CCc2cc(F)cc(F)c2C1)C(=O)Nc1cn(C(C)(C)CNCC(C)(C)C)cn1 [PCM-0215524] | -3.9%
COc1cc2c(cc1O)C[C@@H]1NCCc3cc(OC)c(O)c-2c31 [PCM-0216385] | 6.2%
CN1C[C@@H]2C[C@H]1CN2c1cc2c(cc1F)c(=O)c(C(=O)O)cn2C1CC1 [PCM-0095547] | 10.2%
Cc1[nH]cnc1CN1CCc2c(c3ccccc3n2C)C1=O [PCM-0215666] | -3.4%
O=C(O)[C@H]1O[C@@H](Oc2cc3oc(-c4ccccc4)cc(=O)c3c(O)c2O)[C@H](O)[C@@H](O)[C@@H]1O [PCM-0094823] | 14.8%
CCOC(=O)c1ccc(NC(=O)O[C@H]2[C@H](OC(=O)Nc3ccc4c(c3)OCO4)[C@@H](OC(=O)Nc3ccc4c(c3)OCO4)[C@@H](OC)O[C@@H]2CO)cc1 [PCM-0215463] | 98.1%

Compound | inhibition at 10 µM
CCCCOc1c(C(=O)c2c(F)cc(C)cc2F)cnc2n[nH]cc12 [PCM-0095294] | -2.1%
O=C(/C=C/c1ccc(O)c(O)c1)c1ccc(O)cc1O [PCM-0095622] | 55.2%
C1=Cc2ccccc2Nc2ccccc21 [PCM-0215149] | 4.7%
COc1ccc(-c2oc3c(CC=C(C)C)c(O[C@@H]4C[C@H](CO)[C@@H](O)[C@H](O)[C@H]4O)cc(O)c3c(=O)c2O[C@@H]2O[C@@H](C)[C@H](O)[C@@H](O)[C@H]2O[C@@H]2O[C@H](CO)[C@@H](O)[C@H](O)[C@H]2O)cc1 [PCM-0216510] | -15.4%
Nc1ccc(S(=O)(=O)Nc2cncc(Cl)n2)cc1 [PCM-0215142] | -10.9%
OC(c1cc(-c2ccc(Cl)cc2)nc2ccccc12)C1CCCCN1 (stereo not shown) [PCM-0215603] | 19.3%
Nc1ccc(S(=O)(=O)Nc2nccs2)cc1 [PCM-0085785] | 14.8%
Cc1cc(F)c(Nc2ncnc3cc(OCc4ccccc4)ccc23)cc1O [PCM-0095349] | 46.9%
COc1cc2c(Oc3ccc4[nH]c(C)cc4c3F)ncnc2cc1OCCCN1CCCC1 [PCM-0094913] | 33.8%
CC(C)(C)c1cc(C=C(C#N)C#N)cc(Br)c1O [PCM-0094972] | 57.2%
COc1ccc(N2C(=O)/C(=C\c3ccc([N+](=O)[O-])s3)SC2=S)cc1 [PCM-0215671] | 22.4%
O=C(Oc1cccc(F)c1OC(=O)c1cccc(O)c1)c1cccc(O)c1 [PCM-0215618] | -5.4%
CCCCOc1ccc(C(=O)CCN2CCCCC2)cc1 [PCM-0085815] | -10.1%
O=C1O[C@H]2[C@@H]3OC(=O)c4cc(O)c(O)c(O)c4-c4c(cc(O)c(O)c4O)C(=O)OC[C@H]2O[C@@H](OC(=O)c2cc(O)c(O)c(O)c2)[C@@H]3OC(=O)c2cc(O)c(O)c3c2[C@@H]2C1=CC(=O)[C@](O)(O3)C2(O)O [PCM-0216302] | 0%
CCn1c2ccccc2c2cc(CNCc3ccccc3OC)ccc21 [PCM-0215626] | -27.8%
